Measurements taken from ChEMBL document CHEMBL5608241, “Discovery of Novel Non-nucleoside DOT1LR231Q Inhibitors with Improved Pharmacokinetic Properties and Anti-lung Cancer Efficacy” (J Med Chem, 2024).
pIC50: −log10 of the molar value. Activity calls are given as the source filed them. The calls are words filed in the database; no cut-off is given here.

What was measured:
[1] = MRT (0 to infinity) in male Sprague-Dawley rat at 20 mg/kg, iv measured after 24 hrs by LC-MS/MS analysis; format: ADME, organism-based; conditions: in vivo
[2] = molecular target: T1, Dual specificity mitogen-activated protein kinase kinase; MEK1/2 (Homo sapiens) (UniProt P36507+Q02750); assay: Inhibition of MEK phosphorylation in human NCI-H460 cells exogenously expressing wildtype DOT1L (unknown origin) (1 to 416 residues) at 5 uM by Western blot analysis; format: cell-based
[3] = test system: NCI-H460; assay: Inhibition of colony formation in human NCI-H460 cells exogenously expressing wildtype DOT1L (unknown origin) (1 to 416 residues) at 5 uM incubated for 7 to 14 days by crystal violet staining based light microscopic analysis relative to control; format: functional; conditions: time 7-14 day
[4] = test system: NCI-H460; assay: Effect on H3K79me2 expression in human NCI-H460 cells exogenously expressing wildtype DOT1L (unknown origin) (1 to 416 residues) at 5 uM by Western blot analysis; format: functional, cell-based
[5] = test system: NCI-H460; assay: Antimigratory activity in human NCI-H460 cells exogenously expressing DOT1L R231Q mutant (unknown origin) (1 to 416 residues) assessed as decrease in number of migrating cells at 5 uM measured after 72 hrs by wound healing assay relative to control; format: functional; parameters: scale not given: the % may be the effect or the level left
[6] = AUC (0 to infinity) in male Sprague-Dawley rat at 20 mg/kg, ip measured after 24 hrs by LC-MS/MS analysis; format: ADME, organism-based; conditions: in vivo
[7] = Cmax in male Sprague-Dawley rat at 20 mg/kg, ip measured after 24 hrs by LC-MS/MS analysis; format: ADME, organism-based; conditions: in vivo
[8] = molecular target: T1, Dual specificity mitogen-activated protein kinase kinase; MEK1/2 (Homo sapiens); assay: Inhibition of MEK phosphorylation in human NCI-H460 cells exogenously expressing DOT1L R231Q mutant (unknown origin) (1 to 416 residues) at 5 uM by Western blot analysis; format: cell-based
[9] = test system: NCI-H460; assay: Antimigratory activity in human NCI-H460 cells exogenously expressing wildtype DOT1L (unknown origin) (1 to 416 residues) assessed as decrease in number of migrating cells at 2.5 to 5 uM measured after 72 hrs by wound healing assay; format: functional, cell-based; conditions: dose 2.5-5 µM
[10] = test system: NCI-H460; assay: Inhibition of colony formation in human NCI-H460 cells exogenously expressing wildtype DOT1L (unknown origin) (1 to 416 residues) at 2.5 to 5 uM incubated for 7 to 14 days by crystal violet staining based light microscopic analysis; format: functional, cell-based; conditions: dose 2.5-5 µM, time 7-14 day
[11] = test system: NCI-H460; assay: Antiinvasive activity against human NCI-H460 cells exogenously expressing wildtype DOT1L (unknown origin) (1 to 416 residues) assessed as decrease in number of invading cells at 5 uM incubated for 72 hrs by crystal violet staining based transwell invasion assay relative to control; format: functional; parameters: scale not given: the % may be the effect or the level left
[12] = test system: NCI-H460; assay: Antimigratory activity in human NCI-H460 cells exogenously expressing DOT1L R231Q mutant (unknown origin) (1 to 416 residues) assessed as decrease in number of migrating cells at 2.5 to 5 uM measured after 72 hrs by wound healing assay; format: functional, cell-based; conditions: dose 2.5-5 µM
[13] = test system: NCI-H460; assay: Inhibition of colony formation in human NCI-H460 cells exogenously expressing DOT1L R231Q mutant (unknown origin) (1 to 416 residues) at 2.5 to 5 uM incubated for 7 to 14 days by crystal violet staining based light microscopic analysis; format: functional, cell-based; conditions: dose 2.5-5 µM, time 7-14 day
[14] = AUC (0 to t) in male Sprague-Dawley rat at 20 mg/kg, iv measured after 24 hrs by LC-MS/MS analysis; format: ADME, organism-based; conditions: in vivo
[15] = test system: NCI-H460; assay: Inhibition of MAPK/ERK signaling pathway in human NCI-H460 cells exogenously expressing wildtype DOT1L (unknown origin) (1 to 416 residues) assessed as decrease in RAF1 expression at 5 uM by Western blot analysis; format: cell-based
[16] = Clearance in male Sprague-Dawley rat at 20 mg/kg, iv measured after 24 hrs by LC-MS/MS analysis; format: ADME, organism-based; conditions: in vivo
[17] = test system: NCI-H460; assay: Inhibition of sphere formation in human NCI-H460 cells exogenously expressing wildtype DOT1L (unknown origin) (1 to 416 residues) assessed as reduction in self-renewal at 2.5 to 5 uM incubated for 7 to 14 days by inverted microscopic analysis; format: functional, cell-based; conditions: dose 2.5-5 µM, time 7-14 day
[18] = Half-life in male Sprague-Dawley rat at 20 mg/kg, iv measured after 24 hrs by LC-MS/MS analysis; format: ADME, organism-based; conditions: in vivo
[19] = Toxicity in male BALB/c-nu mouse model xenografted with human NCI-H460 cells harboring DOT1L R231Q mutant assessed as effect on spleen viscera index at 20 mg/kg, ip administered five times a week for 3 weeks; format: organism-based; conditions: in vivo, 504 h
[20] = test system: NCI-H460; assay: Induction of DOT1L R231Q mutant (unknown origin) (1 to 416 residues) stabilization exogenously expressed in human NCI-H460 cells assessed as protection against protease E-mediated degradation preincubated for 7 days followed by protease digestion for 10 mins by DARTS assay; format: cell-based; conditions: dose 1.25-5 µM, time 10090.0 min
[21] = test system: NCI-H460; assay: Effect on H3K9me2 expression in human NCI-H460 cells exogenously expressing DOT1L R231Q mutant (unknown origin) (1 to 416 residues) at 5 uM by Western blot analysis; format: functional, cell-based
[22] = Tmax in male Sprague-Dawley rat at 20 mg/kg, ip measured after 24 hrs by LC-MS/MS analysis; format: ADME, organism-based; conditions: in vivo
[23] = test system: NCI-H460; assay: Antiproliferative activity against human NCI-H460 cells harboring DOT1L R231Q mutant (unknown origin) (1 to 416 residues) assessed as inhibition of cell proliferation incubated for 72 hrs by CCK-8 assay; format: functional, cell-based; conditions: NCI-H460, 72 h
[24] = test system: NCI-H460; assay: Inhibition of sphere formation in human NCI-H460 cells exogenously expressing DOT1L R231Q mutant (unknown origin) (1 to 416 residues) assessed as reduction in self-renewal at 5 uM incubated for 7 to 14 days by inverted microscopic analysis relative to control; format: functional; conditions: time 7-14 day
[25] = test system: NCI-H460; assay: Inhibition of colony formation in DOT1L knockdown human NCI-H460 cells at 2.5 to 5 uM incubated for 7 to 14 days by crystal violet staining based light microscopic analysis; format: functional, cell-based; conditions: dose 2.5-5 µM, time 7-14 day
[26] = Toxicity in male BALB/c-nu mouse model xenografted with human NCI-H460 cells harboring DOT1L R231Q mutant assessed as effect on kidney viscera index at 20 mg/kg, ip administered five times a week for 3 weeks; format: organism-based; conditions: in vivo, 504 h
[27] = test system: NCI-H460; assay: Antiinvasive activity against human NCI-H460 cells exogenously expressing DOT1L R231Q mutant (unknown origin) (1 to 416 residues) assessed as inhibition of cell invasion at 2.5 to 5 uM incubated for 72 hrs by crystal violet staining based transwell invasion assay; format: functional; conditions: dose 2.5-5 µM
[28] = test system: NCI-H460; assay: Inhibition of MAPK/ERK signaling pathway in human NCI-H460 cells exogenously expressing DOT1L R231Q mutant (unknown origin) (1 to 416 residues) assessed as decrease in RAF1 expression at 5 uM by Western blot analysis; format: cell-based
[29] = test system: NCI-H460; assay: Potency index, ratio of SGC0946 IC50 to test compound IC50 for antiproliferative activity against human NCI-H460 cells harboring DOT1L R231Q mutant (unknown origin) (1 to 416 residues) assessed as inhibition of cell proliferation incubated for 72 hrs by CCK-8 assay; format: functional

T1 sequence (P36507 whole entry, looked up, the tested form may be a part): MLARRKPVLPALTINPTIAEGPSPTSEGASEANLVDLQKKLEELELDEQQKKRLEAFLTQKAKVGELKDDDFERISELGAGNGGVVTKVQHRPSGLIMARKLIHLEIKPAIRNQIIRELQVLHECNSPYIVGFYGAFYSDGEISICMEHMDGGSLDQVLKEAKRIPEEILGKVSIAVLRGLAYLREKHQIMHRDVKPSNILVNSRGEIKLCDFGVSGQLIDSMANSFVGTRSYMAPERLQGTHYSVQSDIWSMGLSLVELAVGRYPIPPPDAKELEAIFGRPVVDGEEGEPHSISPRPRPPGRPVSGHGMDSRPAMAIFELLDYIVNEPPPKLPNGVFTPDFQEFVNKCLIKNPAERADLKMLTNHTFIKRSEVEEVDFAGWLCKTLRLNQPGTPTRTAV
T1 sequence (Q02750 whole entry, looked up, the tested form may be a part): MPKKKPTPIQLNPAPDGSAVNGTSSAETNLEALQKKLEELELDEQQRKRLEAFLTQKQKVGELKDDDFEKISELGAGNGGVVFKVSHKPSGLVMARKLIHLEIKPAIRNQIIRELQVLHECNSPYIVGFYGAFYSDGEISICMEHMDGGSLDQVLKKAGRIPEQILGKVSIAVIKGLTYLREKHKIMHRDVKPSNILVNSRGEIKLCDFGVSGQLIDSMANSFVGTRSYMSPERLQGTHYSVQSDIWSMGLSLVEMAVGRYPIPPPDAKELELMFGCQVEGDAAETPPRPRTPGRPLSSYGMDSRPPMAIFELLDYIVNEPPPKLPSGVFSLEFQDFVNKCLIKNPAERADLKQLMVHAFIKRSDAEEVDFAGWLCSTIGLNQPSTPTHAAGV

CC(C)(C)c1ccc(NC(=O)NCCCN(CCCN2CCOCC2)CC2(O)CCN(c3nc(Cl)nc4sccc34)C2)cc1 (centres undefined)
MRT inf [1]: 4.41 h | inhibition [2]: inactive | inhibition at 5 µM [3]: 42% | Activity [4]: inactive | Activity [5]: 60.4% | AUC(0-inf) [6]: 5710 ng·h/mL | Cmax [7]: 2570 ng/mL | inhibition [8]: Active | Activity [9]: Active | inhibition [10]: Active | Activity [11]: 61.5% | Activity [12]: Active | inhibition [13]: Active | AUC(0-t) at 24 h [14]: 5980 ng·h/mL | inhibition [15]: inactive | clearance [16]: 55.2 mL/min/kg | inhibition [17]: Active | half-life [18]: 3.9 h | Activity [19]: Non-Toxic | Activity [20]: Dose-Dependent Effect | Activity [21]: inactive | Tmax [22]: 0.25 h | pIC50 [23]: 5.55 | inhibition at 5 µM [24]: 82% | inhibition [25]: inactive | Activity [26]: Non-Toxic | Activity [27]: Active | inhibition [28]: Active | Ratio IC50 [29]: 1.3
